System: patients with motor response fluctuations
Experiment: UPDRS III AUC response to threshold and suprathreshold IV levodopa infusion
Assay type: in vivo, human
Conditions: Baseline before AAV2-hAADC
Method: On sequential days, patients received either a threshold (0.6 mg/mL; low-dose) or suprathreshold (1.2 mg/mL; high-dose) infusion of IV levodopa dosed at 1 mL/kg/hr for 2 hours. The order and threshold of IV levodopa dosing was randomized and double-blinded (LHLH, LHHL, HLHL, HLLH).
Oral carbidopa (25 mg) was administered 1-2 hours before, during, and 1-2 hours after the infusion. Participants' motor response was measured by UPDRS III (time to 30% change and duration of 30% responses); bradykinesia was measured by finger tapping rate; and dyskinesia was measured by Abnormal Involuntary Movement Scale (AIMS) scoring. Pharmacokinetics were assessed every 30 minutes after administration of IV levodopa.
Results for Group 1 are shown in FIG. 12a: results for Group 2 are shown in FIG. 12b; and results for Group 3 are shown in FIG. 12c.

**Q.** What does the source list for `N[C@@H](Cc1ccc(O)c(O)c1)C(=O)O` [IV Levodopa, L-3,4-dihydroxyphenylalanine]?
**A.** UPDRS III AUC, mean (standard error) (Suprathreshold (1.2 mg/kg/hr) IV Levodopa, Group 1 (N = 5)): −72.8 (13.1); UPDRS III AUC, mean (standard error) (Suprathreshold (1.2 mg/kg/hr) IV Levodopa, Group 2 (N = 5)): −45.0 (13.5); UPDRS III AUC, mean (standard error) (Suprathreshold (1.2 mg/kg/hr) IV Levodopa, Group 3 (N=3)): −41.1 (13.8); UPDRS III AUC, mean (standard error) (Threshold (0.6 mg/kg/hr) IV Levodopa, Group 1 (N = 5)): −22.1 (9.7); UPDRS III AUC, mean (standard error) (Threshold (0.6 mg/kg/hr) IV Levodopa, Group 2 (N = 5)): −21.8 (5.9); UPDRS III AUC, mean (standard error) (Threshold (0.6 mg/kg/hr) IV Levodopa, Group 3 (N=3)): −16.1 (11.4)

From US12319929B2, “Compositions and methods for the treatment of Parkinson's disease” (VOYAGER THERAPEUTICS, INC., priority 2018, dated 2025)
